Experimental data: PMC4823954, “From fighting depression to conquering tumors: a novel tricyclic thiazepine compound as a tubulin polymerization inhibitor” (Cell Death & Disease, 2016)

Columns and labels:
Experiment in all cases: KINOMEscan
Assay type in all cases: binding
Details in all cases: read-out: % Ctrl
AKT1 = biological target: T1, AKT1 (Homo sapiens, UniProt P31749)
T1 construct: purchased DiscoveRx KINOMEscan
Method in brief: (§1)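 Competition binding panel of 442 non-mutant kinases: test compound at 5 and 10 μM competed with an active-site-directed ligand for 1 h with shaking. Bound kinase was eluted with 0.5 μM ligand and quantified by qPCR; %Ctrl = (compound − positive control)/(DMSO − positive control) × 100, lower meaning tighter binding.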

BRAF(V600E) = biological target: T2, BRAF(V600E) (Homo sapiens, UniProt P15056, V600E)
T2 construct: purchased DiscoveRx KINOMEscan
T2 sequence (P15056 whole entry V600E): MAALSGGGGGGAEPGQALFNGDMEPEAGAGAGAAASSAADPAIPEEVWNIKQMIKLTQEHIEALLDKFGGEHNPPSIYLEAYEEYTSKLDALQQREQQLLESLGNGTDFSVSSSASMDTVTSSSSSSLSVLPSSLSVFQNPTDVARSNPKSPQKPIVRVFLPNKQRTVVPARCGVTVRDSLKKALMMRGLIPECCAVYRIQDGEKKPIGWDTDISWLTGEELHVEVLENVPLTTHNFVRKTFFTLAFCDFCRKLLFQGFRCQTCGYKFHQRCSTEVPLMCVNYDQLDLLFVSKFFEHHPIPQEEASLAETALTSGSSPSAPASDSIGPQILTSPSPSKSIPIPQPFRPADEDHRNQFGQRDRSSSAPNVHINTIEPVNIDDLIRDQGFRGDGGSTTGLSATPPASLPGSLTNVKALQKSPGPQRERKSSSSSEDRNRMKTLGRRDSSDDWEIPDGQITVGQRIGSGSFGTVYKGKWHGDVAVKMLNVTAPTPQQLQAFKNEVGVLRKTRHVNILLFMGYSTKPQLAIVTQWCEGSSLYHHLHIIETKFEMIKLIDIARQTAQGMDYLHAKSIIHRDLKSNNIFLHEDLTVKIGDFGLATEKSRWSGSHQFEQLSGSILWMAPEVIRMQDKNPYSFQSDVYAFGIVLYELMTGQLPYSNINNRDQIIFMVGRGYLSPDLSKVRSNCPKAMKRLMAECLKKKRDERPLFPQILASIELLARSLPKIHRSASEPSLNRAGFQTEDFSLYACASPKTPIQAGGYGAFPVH

BRK = biological target: T3, BRK (Homo sapiens, UniProt Q13882)
T3 construct: purchased DiscoveRx KINOMEscan
Method in brief: as §1

BRSK2 = biological target: T4, BRSK2 (Homo sapiens, UniProt Q8IWQ3)
T4 construct: purchased DiscoveRx KINOMEscan
Method in brief: as §1

CDK5 = biological target: T5, CDK5 (Homo sapiens, UniProt Q00535)
T5 construct: purchased DiscoveRx KINOMEscan
Method in brief: as §1

CHEK2 = biological target: T6, CHEK2 (Homo sapiens, UniProt O96017)
T6 construct: purchased DiscoveRx KINOMEscan
Method in brief: as §1

DDR2 = biological target: T7, DDR2 (Homo sapiens, UniProt Q16832)
T7 construct: purchased DiscoveRx KINOMEscan
Method in brief: as §1

EGFR(L858R,T790M) = biological target: T8, EGFR(L858R,T790M) (Homo sapiens, UniProt P00533, L858R/T790M)
T8 construct: purchased DiscoveRx KINOMEscan
T8 sequence (P00533 25-1210 T790M/L858R): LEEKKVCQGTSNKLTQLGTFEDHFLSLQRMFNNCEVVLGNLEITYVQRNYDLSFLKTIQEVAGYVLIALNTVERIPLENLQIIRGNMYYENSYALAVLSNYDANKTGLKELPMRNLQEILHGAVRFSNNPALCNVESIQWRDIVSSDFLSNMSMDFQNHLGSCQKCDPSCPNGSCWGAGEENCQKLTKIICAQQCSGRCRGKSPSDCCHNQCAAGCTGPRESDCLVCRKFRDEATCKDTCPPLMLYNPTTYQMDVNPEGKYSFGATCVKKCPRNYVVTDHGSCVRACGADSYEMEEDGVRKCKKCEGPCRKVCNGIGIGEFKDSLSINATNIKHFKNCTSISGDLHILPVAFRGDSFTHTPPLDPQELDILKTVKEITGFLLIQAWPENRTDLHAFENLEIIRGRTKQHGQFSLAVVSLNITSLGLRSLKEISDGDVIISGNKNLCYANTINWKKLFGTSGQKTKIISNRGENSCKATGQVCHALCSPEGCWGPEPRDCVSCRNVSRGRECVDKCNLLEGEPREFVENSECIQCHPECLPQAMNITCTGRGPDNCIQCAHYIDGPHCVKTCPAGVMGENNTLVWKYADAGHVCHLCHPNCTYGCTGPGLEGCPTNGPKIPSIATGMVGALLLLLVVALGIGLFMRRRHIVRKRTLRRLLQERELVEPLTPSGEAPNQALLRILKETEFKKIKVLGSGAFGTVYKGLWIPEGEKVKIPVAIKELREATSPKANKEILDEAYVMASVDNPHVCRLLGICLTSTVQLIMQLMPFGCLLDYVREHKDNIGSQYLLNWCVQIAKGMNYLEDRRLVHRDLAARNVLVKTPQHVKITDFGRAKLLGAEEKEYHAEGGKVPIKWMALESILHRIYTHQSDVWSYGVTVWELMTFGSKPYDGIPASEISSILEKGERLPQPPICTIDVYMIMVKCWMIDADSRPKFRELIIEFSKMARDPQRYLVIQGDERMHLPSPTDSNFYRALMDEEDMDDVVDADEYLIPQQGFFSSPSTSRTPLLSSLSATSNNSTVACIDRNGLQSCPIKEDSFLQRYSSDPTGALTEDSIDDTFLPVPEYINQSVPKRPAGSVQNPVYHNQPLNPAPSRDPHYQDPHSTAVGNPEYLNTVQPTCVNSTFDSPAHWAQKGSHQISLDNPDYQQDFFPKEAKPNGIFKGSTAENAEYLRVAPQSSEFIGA

EPHA7 = biological target: T9, EPHA7 (Homo sapiens, UniProt Q15375)
T9 construct: purchased DiscoveRx KINOMEscan
Method in brief: as §1

GAK = biological target: T10, GAK (Homo sapiens, UniProt O14976)
T10 construct: purchased DiscoveRx KINOMEscan
Method in brief: as §1

HIPK2 = biological target: T11, HIPK2 (Homo sapiens, UniProt Q9H2X6)
T11 construct: purchased DiscoveRx KINOMEscan
T11 sequence (Q9H2X6 whole entry): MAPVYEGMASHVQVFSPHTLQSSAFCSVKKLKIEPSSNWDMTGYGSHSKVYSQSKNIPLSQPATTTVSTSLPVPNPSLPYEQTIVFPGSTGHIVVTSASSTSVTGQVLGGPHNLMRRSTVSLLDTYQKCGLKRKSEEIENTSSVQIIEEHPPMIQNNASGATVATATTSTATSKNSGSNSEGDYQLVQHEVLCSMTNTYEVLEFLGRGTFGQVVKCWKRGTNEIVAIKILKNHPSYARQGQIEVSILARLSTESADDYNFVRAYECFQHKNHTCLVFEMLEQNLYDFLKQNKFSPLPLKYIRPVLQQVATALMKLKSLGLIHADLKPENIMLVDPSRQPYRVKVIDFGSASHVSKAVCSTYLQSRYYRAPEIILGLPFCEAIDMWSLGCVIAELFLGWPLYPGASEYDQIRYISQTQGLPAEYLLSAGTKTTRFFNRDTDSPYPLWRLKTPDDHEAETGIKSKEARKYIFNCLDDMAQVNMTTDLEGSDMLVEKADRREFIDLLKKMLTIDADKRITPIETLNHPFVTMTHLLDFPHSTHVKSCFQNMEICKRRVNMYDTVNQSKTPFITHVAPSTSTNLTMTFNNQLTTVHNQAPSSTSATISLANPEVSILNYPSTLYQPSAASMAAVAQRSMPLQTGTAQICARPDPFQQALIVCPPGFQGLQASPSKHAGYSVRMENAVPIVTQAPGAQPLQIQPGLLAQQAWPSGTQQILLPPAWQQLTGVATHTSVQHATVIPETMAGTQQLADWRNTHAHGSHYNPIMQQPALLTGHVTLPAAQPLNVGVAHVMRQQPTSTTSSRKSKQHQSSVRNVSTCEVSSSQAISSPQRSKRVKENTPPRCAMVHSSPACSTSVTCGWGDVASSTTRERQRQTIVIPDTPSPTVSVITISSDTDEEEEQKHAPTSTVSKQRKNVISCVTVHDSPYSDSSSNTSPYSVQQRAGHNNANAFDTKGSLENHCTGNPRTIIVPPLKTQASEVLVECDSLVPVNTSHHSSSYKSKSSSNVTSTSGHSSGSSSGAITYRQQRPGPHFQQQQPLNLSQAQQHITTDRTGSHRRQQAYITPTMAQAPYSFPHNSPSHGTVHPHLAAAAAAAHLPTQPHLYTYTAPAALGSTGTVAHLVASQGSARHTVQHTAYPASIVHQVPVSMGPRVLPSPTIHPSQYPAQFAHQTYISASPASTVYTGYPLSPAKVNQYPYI
Method in brief: as §1

HIPK3 = biological target: T12, HIPK3 (Homo sapiens, UniProt Q9H422)
T12 construct: purchased DiscoveRx KINOMEscan
Method in brief: as §1

MARK1 = biological target: T13, MARK1 (Homo sapiens, UniProt Q9P0L2)
T13 construct: purchased DiscoveRx KINOMEscan
Method in brief: as §1

MTOR = biological target: T14, MTOR (Homo sapiens, UniProt P42345)
T14 construct: purchased DiscoveRx KINOMEscan
Method in brief: as §1

NDR2 = biological target: T15, NDR2 (Homo sapiens, UniProt Q9Y2H1)
T15 construct: purchased DiscoveRx KINOMEscan
Method in brief: as §1

PAK4 = biological target: T16, PAK4 (Homo sapiens, UniProt O96013)
T16 construct: purchased DiscoveRx KINOMEscan
T16 sequence (O96013 whole entry): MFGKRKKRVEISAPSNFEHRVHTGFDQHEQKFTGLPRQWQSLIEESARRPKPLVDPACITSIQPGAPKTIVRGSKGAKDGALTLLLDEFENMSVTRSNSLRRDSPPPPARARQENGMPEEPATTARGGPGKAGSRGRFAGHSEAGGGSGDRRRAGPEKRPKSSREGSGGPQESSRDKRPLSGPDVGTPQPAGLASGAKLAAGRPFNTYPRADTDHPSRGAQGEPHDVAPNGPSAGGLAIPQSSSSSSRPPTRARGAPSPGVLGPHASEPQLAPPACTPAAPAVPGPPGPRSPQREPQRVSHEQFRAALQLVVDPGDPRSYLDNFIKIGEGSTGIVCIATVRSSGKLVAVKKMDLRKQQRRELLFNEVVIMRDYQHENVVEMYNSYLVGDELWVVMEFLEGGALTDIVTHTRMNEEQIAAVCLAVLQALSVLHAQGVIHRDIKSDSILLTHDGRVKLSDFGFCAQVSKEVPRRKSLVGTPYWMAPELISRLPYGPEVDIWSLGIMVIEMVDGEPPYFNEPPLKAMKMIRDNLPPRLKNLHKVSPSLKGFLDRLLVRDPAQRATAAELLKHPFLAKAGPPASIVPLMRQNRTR
Method in brief: as §1

PIK3CB = biological target: T17, PIK3CB (Homo sapiens, UniProt P42338)
T17 construct: purchased DiscoveRx KINOMEscan
Method in brief: as §1

PIM2 = biological target: T18, PIM2 (Homo sapiens, UniProt Q9P1W9)
T18 construct: purchased DiscoveRx KINOMEscan
Method in brief: as §1

PRKD1 = biological target: T19, PRKD1 (Homo sapiens, UniProt Q15139)
T19 construct: purchased DiscoveRx KINOMEscan
Method in brief: as §1

PRKR = biological target: T20, PRKR (Homo sapiens, UniProt P19525)
T20 construct: purchased DiscoveRx KINOMEscan
Method in brief: as §1

RET = biological target: T21, RET (Homo sapiens, UniProt P07949)
T21 construct: purchased DiscoveRx KINOMEscan
T21 sequence (P07949 29-1114): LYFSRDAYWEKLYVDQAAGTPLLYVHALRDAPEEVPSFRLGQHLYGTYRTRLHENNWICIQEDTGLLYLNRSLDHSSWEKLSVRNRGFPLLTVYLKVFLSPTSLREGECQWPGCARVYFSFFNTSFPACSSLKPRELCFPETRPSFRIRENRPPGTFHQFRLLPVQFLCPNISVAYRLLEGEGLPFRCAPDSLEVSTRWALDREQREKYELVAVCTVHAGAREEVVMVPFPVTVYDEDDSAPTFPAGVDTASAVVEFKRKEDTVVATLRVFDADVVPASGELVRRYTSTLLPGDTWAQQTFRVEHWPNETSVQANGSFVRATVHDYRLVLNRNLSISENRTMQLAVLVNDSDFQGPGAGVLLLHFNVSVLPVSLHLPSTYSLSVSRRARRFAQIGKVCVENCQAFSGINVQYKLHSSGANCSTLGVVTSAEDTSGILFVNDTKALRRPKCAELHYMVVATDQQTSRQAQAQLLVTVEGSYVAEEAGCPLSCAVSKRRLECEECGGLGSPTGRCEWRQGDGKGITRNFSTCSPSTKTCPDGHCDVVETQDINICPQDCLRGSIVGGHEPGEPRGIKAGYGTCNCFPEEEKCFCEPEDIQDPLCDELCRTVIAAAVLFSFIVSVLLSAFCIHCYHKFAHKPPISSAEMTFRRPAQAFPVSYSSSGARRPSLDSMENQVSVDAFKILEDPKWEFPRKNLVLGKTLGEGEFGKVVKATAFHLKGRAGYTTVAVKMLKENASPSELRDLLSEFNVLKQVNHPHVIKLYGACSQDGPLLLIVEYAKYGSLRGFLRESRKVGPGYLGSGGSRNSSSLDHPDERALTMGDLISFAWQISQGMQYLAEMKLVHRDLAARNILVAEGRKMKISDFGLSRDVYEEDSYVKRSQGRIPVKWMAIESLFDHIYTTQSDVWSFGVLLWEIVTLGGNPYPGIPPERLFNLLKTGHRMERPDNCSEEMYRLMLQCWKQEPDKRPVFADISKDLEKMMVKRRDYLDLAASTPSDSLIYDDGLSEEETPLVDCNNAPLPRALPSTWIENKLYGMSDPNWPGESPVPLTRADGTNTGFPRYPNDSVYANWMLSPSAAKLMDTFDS
Method in brief: as §1

[1] = biological target: T22, RSK4(Kin.Dom.2-C-terminal) (Homo sapiens, UniProt Q9UK32)
T22 construct: RSK4(Kin.Dom.2-C-terminal); purchased DiscoveRx KINOMEscan
Method in brief: as §1

SBK1 = biological target: T23, SBK1 (Homo sapiens, UniProt Q52WX2)
T23 construct: purchased DiscoveRx KINOMEscan
Method in brief: as §1

SRMS = biological target: T24, SRMS (Homo sapiens, UniProt Q9H3Y6)
T24 construct: purchased DiscoveRx KINOMEscan
Method in brief: as §1

STK39 = biological target: T25, STK39 (Homo sapiens, UniProt Q9UEW8)
T25 construct: purchased DiscoveRx KINOMEscan
Method in brief: as §1

TAOK2 = biological target: T26, TAOK2 (Homo sapiens, UniProt Q9UL54)
T26 construct: purchased DiscoveRx KINOMEscan
Method in brief: as §1

TNNI3K = biological target: T27, TNNI3K (Homo sapiens, UniProt Q59H18)
T27 construct: purchased DiscoveRx KINOMEscan
Method in brief: as §1

TRKB = biological target: T28, TRKB (Homo sapiens, UniProt Q16620)
T28 construct: purchased DiscoveRx KINOMEscan
Method in brief: as §1

TTK = biological target: T29, TTK (Homo sapiens, UniProt P33981)
T29 construct: purchased DiscoveRx KINOMEscan
Method in brief: as §1

[2] = biological target: T30, TYK2(JH1domain-catalytic) (Homo sapiens, UniProt P29597)
T30 construct: TYK2(JH1domain-catalytic); purchased DiscoveRx KINOMEscan
Method in brief: as §1

Cc1ccc(C2=Nc3cccnc3S(=O)(=O)c3ccccc32)cc1 [TBPT, 6-(p-tolyl)benzo[f] pyrido[2,3-b][1,4] thiazepine 11,11-dioxide]
99%: remaining binding at 10 µM (DDR2; 10 μM)
90%: remaining binding at 10 µM (GAK; 10 μM) | remaining binding at 10 µM (PRKR; 10 μM) | remaining binding at 5 µM (TAOK2; 5 μM)
98%: remaining binding at 10 µM (BRK; 10 μM) | remaining binding at 10 µM (CDK5; 10 μM)
100%: remaining binding at 10 µM (AKT1; 10 μM) | remaining binding at 5 µM (BRK; 5 μM) | remaining binding at 5 µM (BRSK2; 5 μM) | remaining binding at 10 µM (BRSK2; 10 μM) | remaining binding at 5 µM (CHEK2; 5 μM) | remaining binding at 10 µM (CHEK2; 10 μM) | remaining binding at 5 µM (DDR2; 5 μM) | remaining binding at 10 µM (EPHA7; 10 μM) | remaining binding at 5 µM (GAK; 5 μM) | remaining binding at 5 µM (HIPK2; 5 μM) | remaining binding at 10 µM (HIPK2; 10 μM) | remaining binding at 5 µM (HIPK3; 5 μM) | remaining binding at 10 µM (HIPK3; 10 μM) | remaining binding at 10 µM (MARK1; 10 μM) | remaining binding at 5 µM (MTOR; 5 μM) | remaining binding at 5 µM (NDR2; 5 μM) | remaining binding at 10 µM (NDR2; 10 μM) | remaining binding at 5 µM (PAK4; 5 μM) | remaining binding at 10 µM (PAK4; 10 μM) | remaining binding at 10 µM (PIK3CB; 10 μM) | remaining binding at 5 µM (PIM2; 5 μM) | remaining binding at 10 µM (PIM2; 10 μM) | remaining binding at 5 µM (PRKD1; 5 μM) | remaining binding at 5 µM (RET; 5 μM) | remaining binding at 5 µM (SBK1; 5 μM) | remaining binding at 5 µM (STK39; 5 μM) | remaining binding at 5 µM (TNNI3K; 5 μM) | remaining binding at 10 µM (TRKB; 10 μM) | remaining binding at 5 µM (TTK; 5 μM) | remaining binding at 10 µM (TTK; 10 μM) | remaining binding at 10 µM ([2]; 10 μM)
96%: remaining binding at 5 µM (TRKB; 5 μM)
95%: remaining binding at 10 µM (MTOR; 10 μM)
69%: remaining binding at 5 µM ([2]; 5 μM)
84%: remaining binding at 5 µM (AKT1; 5 μM)
93%: remaining binding at 5 µM (EPHA7; 5 μM)
36%: remaining binding at 5 µM (PIK3CB; 5 μM)
97%: remaining binding at 5 µM (PRKR; 5 μM) | remaining binding at 10 µM (SRMS; 10 μM)
87%: remaining binding at 10 µM (RET; 10 μM) | remaining binding at 5 µM (SRMS; 5 μM)
62%: remaining binding at 10 µM (STK39; 10 μM)
57%: remaining binding at 10 µM ([1]; 10 μM)
89%: remaining binding at 5 µM (MARK1; 5 μM) | remaining binding at 10 µM (TNNI3K; 10 μM)
85%: remaining binding at 5 µM (CDK5; 5 μM) | remaining binding at 10 µM (SBK1; 10 μM)
78%: remaining binding at 5 µM (EGFR(L858R,T790M); 5 μM) | remaining binding at 10 µM (PRKD1; 10 μM)
88%: remaining binding at 10 µM (EGFR(L858R,T790M); 10 μM)
94%: remaining binding at 5 µM (BRAF(V600E); 5 μM) | remaining binding at 10 µM (BRAF(V600E); 10 μM) | remaining binding at 5 µM ([1]; 5 μM)
67%: remaining binding at 10 µM (TAOK2; 10 μM)
